Results from ChEMBL document CHEMBL2062512, “Metronidazole thiosalicylate conjugates: synthesis, crystal structure, docking studies and antiamoebic activity” (Bioorg Med Chem Lett, 2012).

Tests used:
Entamoeba histolytica = assay: […] activity against Entamoeba histolytica HM-1:IMSS after 72 hrs by eosin-staining method; type: functional, organism-based
MCF7 = assay: Cytotoxicity against human MCF7 cells after 48 hrs by MTT assay; type: cell-based; details: MCF7, 48 h

Structure (SMILES)	IC50 (Entamoeba histolytica) [nM]	IC50 (MCF7) [nM]
COC(=O)c1ccccc1SCCn1c([N+](=O)[O-])cnc1C	28	> 250000
COC(=O)c1ccccc1[S+]([O-])CCn1c([N+](=O)[O-])cnc1C (configuration not stated)	15	> 250000
COC(=O)c1ccccc1S(=O)(=O)CCn1c([N+](=O)[O-])cnc1C	21	> 250000
Cc1ncc([N+](=O)[O-])n1CCO [METRONIDAZOLE]		> 250000
